From patent US9808434B2, “Compound for treating cancer and diabetes” (CITY OF HOPE, priority 2011, dated 2017)

Tests used:
A2058 p^0 cells = test: Oxygen consumption rate in mitochondrial DNA-depleted cells; format: cell-based, human; conditions: compared with wild-type A2058; data not shown
Method: Oxygen consumption rate (OCR), a measure of OxPhos, and extracellular acidification rate (ECAR), a measure of lactate production by glycolysis, were measured using a Seahorse Xf^e96 Flux Analyzers (Seahorse Biosciences, North Billerica, Mass.). Cells were seeded in DMEM media in Seahorse 96-well tissue culture plates at a density of 5×10^3 cells/well and allowed to adhere for 24 h. Prior to the assay, the media was changed to unbuffered DMEM containing 25 mM glucose, 1 mM pyruvate and 1 mM glutamine, with 0.2% fatty acid/endotoxin-free BSA (w/v) (pH 7.4) and the cells were equilibrated for 30 min at 37° C. Test compounds were injected during the assay and OCR and ECAR were measured using 2-3 min measurement periods. Similar sets of experiments were performed in the presence of the mitochondria recoupler agent 6-KCH or the mitochondrial permeability transition (MPT) pore blocker CSA, where each compound was injected into the assay media prior to COH-SR4 or FCCP injection. […] OCR was measured throughout the different injections of the stressors and test compounds (indicated by arrows in the figures).
To verify that COH-SR4 acts directly on mitochondrial respiration, OCR in mitochondrial DNA-depleted (p^0) A2058 cells was measured, as well as freshly isolated mouse liver mitochondria and treated with either COH-SR4 or FCCP.

SK-Mel-5 = test: Colony formation assay, SK-Mel-5; format: cell-based, human; conditions: 5 μM
Method: Cell survival was evaluated using a standard colony-forming assay. In total, 1×10^5 cells/mL were incubated with COH-SR4 (1.5 μM or 5 μM) or elesclomol (5 μM) for 24 h, and aliquots of 50 or 100 μL were added to 60 mm size petri dishes, containing 4 mL culture medium. After 7 or 10 days, adherent colonies were fixed, stained with 0.5% methylene blue for 30 min and colonies were counted using the Innotech Alpha Imager HP (91).

GST = GST activity towards CDNB in melanoma cell supernatants; format: biochemical; conditions: B16-F0, Hs600T, A2058 supernatants; 1 mM GSH and CDNB
Method: GST activity towards 1-chloro 2,4-dinitro benzene (CDNB) and its inhibition by COH-SR4 was performed in 28000×g crude supernatant prepared from B16-F0, Hs600T and A2058 cells. Human liver purified GST was used as a control (inset). The inhibitory effect of COH-SR4 on GST was studied at a fixed concentration of GSH and CDNB (1 mM each) and varying concentrations of inhibitor. The enzymes were pre-incubated with the inhibitor for 5 min at 37° C. prior to the addition of the substrates. […] The ability of COH-SR4 to inhibit GST activity in melanomas represents a potential mechanism that contributes to decreased survival of melanoma cells following COH-SR4 treatment (FIG. 68A).

B16 mouse melanoma tumor = test: Histopathology (IHC) of B16 melanoma tumor sections; format: in vivo; conditions: treated vs control tumors
Method: B16 melanoma bearing C57B mice tumor sections were treated without or with COH-SR4, and used for histopathologic analyses.
H&E stain, or hematoxylin and eosin stain, a general gross morphology stain were used. […] Eosin was pink and stained proteins nonspecifically. In a typical tissue, nuclei were stained blue, whereas the cytoplasm and extracellular matrix had varying degrees of pink staining. The pink coloration in the control tumor cells indicated cell proliferation (FIG. 57)
IHC analyses for Ki-67 expression (marker of cellular proliferation), CD31 (angiogenesis marker), and pAMPK (cellular regulator of lipid and glucose metabolism) from tumors in mice of control and COH-SR4-treated groups were carried out. Statistical significance of difference was determined by two-tailed Student's t test. When COH-SR4-treated tumor sections were compared with the control, p<0.001. […] Sections were counterstained with Hematoxylin (blue). Photomicrographs at 40× magnification were acquired using Olympus Provis AX70 microscope. Percent staining was determined by measuring positive immuno-reactivity per unit area. Arrows indicated the areas for positive staining for an antigen. The intensity of antigen staining was quantified by digital image analysis. Bars represented mean+S.E. (n=5); “*” means p<0.001 compared with control.

PBT-017 glioma cells [1] = test: Apoptosis of PBT-017 glioma cells, cell counts; format: cell-based; conditions: 2 or 10 μM, 4 days
Method: PBT-017 glioma cells were incubated with nothing (control), DMSO, and COH-SR4 at 2 μM or 10 μM for 4 days.

PBT-017 glioma cells [2] = test: Combination index with chemotherapy drugs, PBT-017; format: cell-based
Method: Effects of combination of COH-SR4 and a chemotherapy drug such as TMZ, SN38, CPT-11, and 5-FU were studied by combination index (CI) theorem and plot using the method described in Chou (“Experimental Design, and Computerized Simulation of Synergism and Antagonism in Drug Combination Studies,” Pharmacological Reviews, Vol. 58, No. 3), which is incorporated herein by reference in its entirety.
COH-SR4 and a chemotherapy drug (TMZ, SN38, CPT-11, or 5-FU) were dissolved in DMSO individually, and then diluted to the appropriate concentration in the same cell culture media before applying to cells of each cell line. After 4 days, the amount of ATP present in the cell lysates were assessed using Progema's CellGlo kit. The CI of each combination of COH-SR4 and the chemotherapy drug was calculated and plotted against the concentration of COH-SR4 for each concentration of the chemotherapy drug used.

U251 glioma cells = test: Intracellular ROS (H2DCFDA+ cells), flow cytometry; format: cell-based; conditions: 2 or 10 μM, 24 hours
Method: Cells of U251 glioma cells or pNHA cell lines were treated with COH-SR4 at a concentration of 0 μM, 2 μM or 10 μM for 24 hours before intracellular ROS was assessed by flow cytometry (representative of 3 runs and samples in triplicate). ROS increased in the glioma cells treated with COH-SR4 as indicated by the increased amounts of H2DCFDA+ cells (FIG. 38).

O=C(Nc1cc(Cl)cc(Cl)c1)Nc1cc(Cl)cc(Cl)c1 [COH-SR4, 1,3-bis(3,5-dichlorophenyl) urea]
OCR in mitochondrial DNA-depleted cells (A2058 p^0 cells): failed to increase OCR
colony formation (SK-Mel-5): 22±8%
total GST activity towards CDNB (GST): inhibited the total GST activity to a significant extent
CD31 (angiogenesis marker) (B16 mouse melanoma tumor): decreased CD31
Ki-67 expression (cellular proliferation) (B16 mouse melanoma tumor): decreased Ki67
pAMPK (B16 mouse melanoma tumor): increased pAMPK
fraction of apoptotic cells (PBT-017 glioma cells [1]): increased the fraction of apoptotic cells
combination effect (CI) with 5-FU (PBT-017 glioma cells [2]; COH-SR4 <0.05 μM + 5-FU >250 μM): Additive effects
combination effect (CI) with CPT-11 (PBT-017 glioma cells [2]; COH-SR4 <0.5 μM + CPT-11 <0.0625 μM): Synergism
combination effect (CI) with SN-38 (PBT-017 glioma cells [2]; COH-SR4 <0.5 μM + SN-38 <0.0004 μM): Synergism
combination effect (CI) with TMZ (PBT-017 glioma cells [2]; COH-SR4 <0.5 μM + TMZ 25 μM): Synergism
combination effect (CI) with TMZ (PBT-017 glioma cells [2]; COH-SR4 <1.0 μM + TMZ >100 μM): Additive effects
combination effect (CI) with SN-38 (PBT-017 glioma cells [2]; COH-SR4 >0.5 μM + SN-38 <0.001 μM): Additive effects
combination effect (CI) with CPT-11 (PBT-017 glioma cells [2]; COH-SR4 >1.0 μM + CPT-11 <0.5 μM): Additive effects
intracellular ROS (H2DCFDA+ cells) (U251 glioma cells): ROS increased
